# Peptide text beside a SMILES is read from it.
# System: T-cells in HAM/TSP patient PBMC
# Experiment: Ex vivo spontaneous T-cell proliferation assay using HAM/TSP peripheral blood
# Format: cell-based, human
# Details: HAM/TSP peripheral blood ex vivo culture
# Description: Proliferation assays were performed on HAM/TSP patient blood samples with and without the addition of BNZ-γ. These assays evaluated the ability of BNZ-γ to block the function of cytokines, such as IL-2 and IL-15, present in the ex vivo HAM/TSP patient blood culture and prevent spontaneous T-cell proliferation in these samples.
# In an ex vivo spontaneous T-cell proliferation assay, PBMC from HAM/TSP patient was cultured at 1×10(6) cells per well of a 96 well plate in RPMI-10% FCS. Increasing concentrations of BNZ-γ peptide were added to each well. As a control, an irrelevant peptide was used in similar fashion. The cells were incubated in a 37° C. CO2 incubator for 3, 4, and 6 days. The amount of 1 μCi of ^3H-thymidine was added to the cells. After an additional 6 hour incubation, cells were harvested their proliferation rate was measured. As indicated in FIG. 4A-FIG. 4D, BNZ-γ peptide inhibits the spontaneous proliferation of T-cells in HAM/TSP culture at a concentration of about 1 μg/ml.
# Other immunological markers were additionally measured in this assay. The percentage of the viral specific CD8 cells was measured during the ex vivo culture using viral protein tetramers. The population of CD4+CD25+ cells, a marker of T-cell activation, as well as Ki67 staining, a marker of T-cell proliferation, was monitored in a flow cytometry assay.
compound,measurement,value
"CC[C@H](C)[C@H](N)C(=O)N[C@@H](CCCCN)C(=O)N[C@@H](CCC(=O)O)C(=O)N[C@@H](Cc1ccccc1)C(=O)N[C@@H](CC(C)C)C(=O)N[C@@H](CCC(N)=O)C(=O)N[C@@H](CCCNC(=N)N)C(=O)N[C@@H](Cc1ccccc1)C(=O)N[C@H](C(=O)N[C@@H](Cc1c[nH]cn1)C(=O)N[C@H](C(=O)N[C@H](C(=O)N[C@@H](CCC(N)=O)C(=O)N[C@@H](CO)C(=O)N[C@H](C(=O)N[C@H](C(=O)N[C@@H](CC(N)=O)C(=O)N[C@H](C(=O)N[C@@H](CO)C(=O)O)[C@@H](C)O)[C@@H](C)CC)[C@@H](C)CC)C(C)C)[C@@H](C)CC)[C@@H](C)CC [BNZ-γ, I-K-E-F-L-Q-R-F-I-H-I-V-Q-S-I-I-N-T-S] (H-IKEFLQRFIHIVQSIINTS-OH)",percent of live cells by Guava staining,not impacted
